Experiment [1] concerns the target T1, RXRα (Homo sapiens, UniProt P19793).
T1 construct: expressed in transfected cells
T1 sequence (P19793 1-462): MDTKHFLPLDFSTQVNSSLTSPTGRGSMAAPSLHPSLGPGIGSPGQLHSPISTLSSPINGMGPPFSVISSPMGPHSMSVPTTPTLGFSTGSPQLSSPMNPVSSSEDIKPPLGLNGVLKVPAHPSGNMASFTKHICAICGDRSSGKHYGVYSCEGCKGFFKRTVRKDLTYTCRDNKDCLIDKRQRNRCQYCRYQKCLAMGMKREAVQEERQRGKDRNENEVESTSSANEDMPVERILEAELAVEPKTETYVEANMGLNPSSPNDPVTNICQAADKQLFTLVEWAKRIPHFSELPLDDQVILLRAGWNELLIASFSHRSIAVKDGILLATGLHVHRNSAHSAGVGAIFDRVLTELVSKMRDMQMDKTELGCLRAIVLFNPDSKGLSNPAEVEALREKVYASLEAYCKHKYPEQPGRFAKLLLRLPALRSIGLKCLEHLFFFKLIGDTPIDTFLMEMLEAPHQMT
Description: holoreceptor transactivation assay, RXRα. It counts as cell-based. The settings on record: for EC50: read-out: EC50 (nM) RXR α. The text has this: (§1) A holoreceptor transactivation assay and a ligand binding assay which measure the antagonist/agonist like activity of the compounds of the invention, or their ability to bind to the several retinoid receptor subtypes, respectively, are described in published PCT Application No. WO WO93/11755 (particularly on pages 30-33 and 37-41) published on Jun. 24, 1993, the specification of which is also incorporated herein by reference. A detailed experimental procedure for holoreceptor transactivations has been described by Heyman et al. Cell 68, 397-406, (1992); Allegretto et al. J. Biol. Chem. 268, 26625-26633, and Mangelsdorf et al. The Retinoids: Biology, Chemistry and Medicine, pp 319-349, Raven Press Ltd., New York, which are expressly incorporated herein by reference. The results obtained in this assay are expressed in EC50 numbers, as they are also in the chimeric receptor transactivation assay. The results of ligand binding assay are expressed in Kd numbers. (See Cheng et al. Biochemical Pharmacology Vol. 22 pp 3099-3108, expressly incorporated herein by reference.)
(§2) Table 1 discloses the activity of certain exemplary compounds of the invention in the above-described holoreceptor transactivation assay and a ligand binding assays. Particularly, the transactivation data pertaining to RAR receptors were obtained in the chimeric assay, and the data pertaining to transactivation of RXR receptors were obtained in the holoreceptor transactivation assay.

In experiment [2] the target is T2, RXRβ (Homo sapiens, UniProt P28702).
T2 construct: expressed in transfected cells
T2 sequence (P28702 1-533): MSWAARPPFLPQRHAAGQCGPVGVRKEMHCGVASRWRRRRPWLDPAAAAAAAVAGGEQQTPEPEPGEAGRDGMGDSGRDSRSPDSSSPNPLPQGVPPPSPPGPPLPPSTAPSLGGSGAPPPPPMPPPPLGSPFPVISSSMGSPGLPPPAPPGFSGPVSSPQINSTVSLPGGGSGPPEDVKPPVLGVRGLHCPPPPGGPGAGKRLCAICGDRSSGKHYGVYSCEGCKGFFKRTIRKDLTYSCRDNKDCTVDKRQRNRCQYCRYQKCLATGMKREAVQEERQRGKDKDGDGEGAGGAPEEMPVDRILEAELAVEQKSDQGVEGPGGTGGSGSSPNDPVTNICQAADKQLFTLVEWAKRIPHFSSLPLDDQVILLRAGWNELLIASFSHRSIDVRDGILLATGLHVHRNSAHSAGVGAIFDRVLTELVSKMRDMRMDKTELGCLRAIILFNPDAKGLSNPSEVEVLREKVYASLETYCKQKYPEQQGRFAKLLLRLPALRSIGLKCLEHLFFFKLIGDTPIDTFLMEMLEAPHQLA
Description: holoreceptor transactivation assay, RXRβ. It counts as cell-based. Conditions: for EC50: read-out: EC50 (nM) RXR β.
Text: as §1, §2

The target of experiment [3] is T3, RXRγ (Homo sapiens, UniProt P48443).
T3 construct: expressed in transfected cells
T3 sequence (P48443 1-463): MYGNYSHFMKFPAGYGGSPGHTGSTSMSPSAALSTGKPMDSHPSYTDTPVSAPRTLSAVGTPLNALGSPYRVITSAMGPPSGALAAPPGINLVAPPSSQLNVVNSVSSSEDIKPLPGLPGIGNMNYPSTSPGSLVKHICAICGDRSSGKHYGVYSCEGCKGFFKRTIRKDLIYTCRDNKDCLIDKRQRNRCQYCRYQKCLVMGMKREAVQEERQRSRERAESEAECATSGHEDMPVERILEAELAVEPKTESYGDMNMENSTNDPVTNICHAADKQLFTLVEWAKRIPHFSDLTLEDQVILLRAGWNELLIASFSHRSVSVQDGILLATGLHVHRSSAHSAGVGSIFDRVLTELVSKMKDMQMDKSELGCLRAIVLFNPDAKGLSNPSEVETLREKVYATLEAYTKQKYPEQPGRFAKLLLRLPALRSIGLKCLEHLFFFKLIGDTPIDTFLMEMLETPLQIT
Description: holoreceptor transactivation assay, RXRγ. The format is cell-based. The settings on record: for EC50: read-out: EC50 (nM) RXR γ.
Text: as §1, §2

Experiment [4] has as its target T1, RXRα. Kind of experiment: ligand binding assay, RXRα. The settings on record: read-out: Kd (nM) RXR α.
Text: as §1, §2

Experiment [5] deals with T2, RXRβ. Description: ligand binding assay, RXRβ. Conditions: read-out: Kd (nM) RXR β.
Text: as §1, §2

Experiment [6] concerns the target T3, RXRγ. Kind of experiment: ligand binding assay, RXRγ. The settings on record: read-out: Kd (nM) RXR γ.
Text: as §1, §2

Bounds are passed on as bounds.

In general, EC50 refers to the concentration that produces a half-maximal response. As usually defined, the Kd is the constant that tells how readily two partners part at equilibrium. Take `CCc1oc2ccc([C@@]3(C)C[C@H]3/C=C/C(C)=C/C(=O)O)cc2c1CC` [Compound 20, 3-Methyl-6(S),7(S)-methano-7-(2,3-di-ethyl-benzofur-5-yl)-octa-2(E),4(E)-dienoic acid]: the “% Eff RXR α” value in experiment [1] is recorded as 130%. Also, the EC50 in experiment [1] amounted to 6 nM; in experiment [2], 44 nM; in experiment [3] it was 12 nM. Also, in experiment [2], the “% Eff RXR β” value was determined as 90%. The “% Eff RXR γ” value in experiment [3] stood at 90%. The Kd came out at 71 nM in experiment [4], 288 nM in experiment [5] and 256 nM in experiment [6].
As to `CCc1oc2ccc([C@@]3(C)C[C@H]3/C=C/C(C)=C/C(=O)O)cc2c1C(C)C` [Compound 28, 3-Methyl-6(S),7(S)-methano-7-(2-ethyl-3-iso-propyl-benzofur-5-yl)-octa-2(E),4(E)-dienoic acid], the “% Eff RXR α” value in experiment [1] is 102%. In addition, the EC50 was determined as 0.7 nM in experiment [1], 4.3 nM in experiment [2] and 0.8 nM in experiment [3]. In experiment [2], the “% Eff RXR β” value came to 116%. Also, the “% Eff RXR γ” value in experiment [3] turned out to be 110%. Moreover, the Kd was determined as 6.8 nM in experiment [4], 17 nM in experiment [5] and 48 nM in experiment [6].
Consider `CCc1oc2ccc([C@@]3(C)C[C@H]3/C=C/C(C)=C/C(=O)O)cc2c1C(C)(C)C` [Compound 12, 3-Methyl-6(S),7(S)-methano-7-(3-t-butyl-2-ethyl-benzofur-5-yl)-octa-2(E),4(E)-dienoic acid], for which, in experiment [1], the “% Eff RXR α” value is 144%. The EC50 stood at 1.5 nM in experiment [1], 17 nM in experiment [2] and 2.9 nM in experiment [3]. In experiment [2], the “% Eff RXR β” value came to 150%. In addition, in experiment [3], the “% Eff RXR γ” value is on record as 131%. For the same compound, the figures for the Kd in experiment [4], in experiment [5] and in experiment [6] were 11 nM, 20 nM and 40 nM, respectively.
With `CCCCCc1oc2ccc([C@@]3(C)C[C@H]3/C=C/C(C)=C/C(=O)O)cc2c1C(C)(C)C` [Compound 38, 3-Methyl-6(S),7(S)-methano-7-(3-t-butyl-2-n-pentyl-benzofur-5-yl)-octa-2(E),4(E)-dienoic acid], the “% Eff RXR α” value in experiment [1] was 100%. Further, the EC50 in experiment [1] was 2.2 nM; in experiment [2], 9.3 nM; in experiment [3] it was 2.6 nM. For the same compound, the “% Eff RXR β” value in experiment [2] is 96%. For the same compound, the “% Eff RXR γ” value in experiment [3] was found to be 101%. Besides, the Kd in experiment [4] was 19.5 nM; in experiment [5] it was 98 nM; in experiment [6], above 1000 nM.
